In patent US11827917B1, “Methods for the conversion of fermentable sugars to ethanol” (Colorado State University Research Foundation, priority 2020, dated 2023):
Several values for one entry are separate records, joined by “and”; a condition that tells them apart may be missing. Equal values may be shown once.

Assays:
S. cerevisiae JAY270 = assay: Immobilized yeast cells, batch cultivation on D. armatus hydrolysate; type: cell-based, Saccharomyces cerevisiae; settings: 0.2%; for EtOH yield / EtOH yield % Δ from control: 24 hours
Description: S. cerevisae JAY270 cells were precultured in 600 mL YPD medium at 30° C. overnight and collected by centrifuging at 3000×g for 10 min at 4° C. The cell pellets were washed twice by resuspending in 0.8% NaCl and centrifuged to remove any medium residue. Then, the cells were resuspended in 50 mL 0.8% NaCl and mixed with the 4% sodium alginate solution to obtain the final sodium alginate concentration of 3%. The mixture was dropped with a syringe aseptically into sterilized 2% CaCl2·2H2O on ice to form spheres (“beads”). The cell-immobilized beads were kept in the CaCl2) solution at 4° C. until use.
The immobilized cells were incubated in YPD medium with 20 g/L glucose overnight at 30° C. to activate the immobilized cells. For each replicate test, 25 mL of D. armatus hydrolysate obtained from NREL was mixed with 15 mL beads and transferred into a 50 mL serum bottle. All serum bottles were incubated in a shaker at 150 rpm and 30° C. Samples were collected at 0, 12, and 24 h. The concentrations of sugars and ethanol in the samples were analyzed by HPLC.
To test the effects of yield-increasing chemicals on the immobilized cells fermentation, 0.2% PheOH or TrpOH was added in the D. armatus hydrolysate obtained from NREL in serum bottles respectively (batch growth). PheOH was directly added into the hydrolysate medium. TrpOH was dissolved in DMSO at 20%, then added into the hydrolysate to achieve the desired final concentration. The same amount of DMSO was added into the control cultivations. S. cerevisae JAY270 cells were immobilized in calcium alginate. The immobilized cell beads were incubated in YPD medium overnight at 30° C. to activate the immobilized cells. Twenty-five mL of D. armatus hydrolysate was mixed with 15 mL immobilized cell beads (three biological replicates in each treatment) and incubated at 30° C. The ethanol yield was calculated at 24 hours. The content of glucose and ethanol in samples was analyzed using HPLC.

S. cerevisiae JAY 270 = assay: 1-L batch bioreactor fermentation, time course; type: cell-based, Saccharomyces cerevisiae; settings: for Biomass Yield / Biomass yield % change vs. control / EtOH yield / EtOH yield % change vs. control / Glycerol yield / Glycerol yield % change vs. control: 1-L bioreactor, 24 hours; for Biomass yield, lower in comparison to control: addition in the fermentation medium
Description: Yeast strain: S. cerevisiae JAY 270, as in Example 1. Inocula for bioreactor experiments with PheOH and TrpOH S. cerevisiae JAY 270 were prepared by culturing the yeast in 100 mL of YPD medium in 200-mL serum bottles overnight in a shaker at 30° C. and 200 rpm. The cells were collected by centrifuging 10 min at 4000×g and 4° C. The cell pellet was washed twice using sterile 0.8% (w/v) NaCl solution. Finally, the cell pellet was resuspended in about 15 mL of 0.8% (w/v) NaCl.
Procedure: Fermentations were carried out in two Eppendorf BioFlo 115 bioreactors containing 1 L sterile YNB medium with 20 g/L glucose (Difco Yeast Nitrogen Base, catalog number 239210). The prepared yeast cells were inoculated in the bioreactor vessels to obtain an initial yeast cell concentration of OD600≈0.1. The fermentation was conducted at pH 5.5, 30° C., and 200 rpm agitation. Ultrapure N2 was sparged at 0.1 standard liters per minute in the bioreactor vessels to maintain anaerobic conditions. Samples were collected at different time points to monitor cell, glucose, and ethanol concentrations.
(§1) For experiments with added PheOH, 2.0 mL of PheOH stock solution was added to one of the two vessels when the OD600 reached 1.0 to achieve a final concentration of 0.2% (w/v). In the serum bottle tests, TrpOH had stronger effects on yeast cell growth than PheOH at the same tested concentration. A study in serum bottles was then conducted to determine the TrpOH concentration that would have a similar growth inhibitory effect. […] Thus, for bioreactor experiments on the effects of TrpOH, the TrpOH was added at 0.12%. Since TrpOH was dissolved in DMSO, the same concentration of DMSO was added in the control bioreactor at the same time. All other bioreactor conditions were the same as in the PheOH test.
Samples were collected from the bioreactors every hour post-addition for 6 h, and again after 24 hours of cultivation. Each experiment was repeated in triplicate.

yeast = assay: Yeast growth and ethanol yield in serum bottles, low/high cell inoculum (Tables 5, 6); type: cell-based
yeast cell growth = assay: Serum-bottle study of the TrpOH concentration with similar growth inhibition as PheOH; type: cell-based; settings: serum bottles, data not shown
Description: as §1

[1] = 0.05%, high cell inoculum (OD600 at 0 h 1.96), 26 h test
[2] = 0.05%, low cell inoculum (OD600 at 0 h 0.70), 26 h test
[3] = 0.1%, high cell inoculum (OD600 at 0 h 1.96), 26 h test
[4] = 0.1%, low cell inoculum (OD600 at 0 h 0.70), 26 h test
[5] = 0.2%, high cell inoculum (OD600 at 0 h 1.96), 26 h test
[6] = 0.2%, low cell inoculum (OD600 at 0 h 0.70), 26 h test
[7] = 0.05%, high cell inoculum (OD600 at 0 h 0.85), 48 h test
[8] = 0.05%, low cell inoculum (OD600 at 0 h 0.30), 48 h test
[9] = 0.1%, high cell inoculum (OD600 at 0 h 0.85), 48 h test
[10] = 0.1%, low cell inoculum (OD600 at 0 h 0.30), 48 h test
[11] = 0.2%, high cell inoculum (OD600 at 0 h 0.85), 48 h test
[12] = 0.2%, low cell inoculum (OD600 at 0 h 0.30), 48 h test

## OCCc1ccccc1 [PheOH, 2-phenylethanol]
S. cerevisiae JAY270; D. armatus hydrolysate, batch
  EtOH yield: 0.46 g/g
  EtOH yield % Δ from control: 1.54%
S. cerevisiae JAY 270; PheOH 0.2%
  Glycerol concentration, decrease: 21%
S. cerevisiae JAY 270; PheOH 0.2% (w/v)
  Biomass Yield: 0.063 ± 0.008 g/g
  Biomass yield % change vs. control: −23 ± 5 %
  EtOH yield: 0.435 ± 0.003 g/g
  EtOH yield % change vs. control: 5.3 ± 0.8 %
  Glycerol yield: 0.071 ± 0.001 g/g
  Glycerol yield % change vs. control: −20 ± 2 %
S. cerevisiae JAY 270; PheOH 0.2% (w/v), listed as 2-phenylethanol
  EtOH yield % change vs. control: 6%
S. cerevisiae JAY 270; PheOH 0.2%, 24 h
  Final cell concentration, lower than control: 22%
S. cerevisiae JAY 270; PheOH 0.2%, after 12 h (control completely consumed)
  Glucose remaining: about 2 g/L
S. cerevisiae JAY 270
  Biomass yield, lower in comparison to control: about 20%
yeast; 0.05%, high cell inoculum (OD600 at 0 h 1.96)
  OD600 at 26 h: 4.24
yeast; [1]
  EtOH yield: 0.47 g/g
  EtOH yield % Δ from control: 3.1%
yeast; 0.05%, low cell inoculum (OD600 at 0 h 0.70)
  OD600 at 26 h: 3.28
yeast; [2]
  EtOH yield: 0.47 g/g
  EtOH yield % Δ from control: −1.9%
yeast; 0.1%, high cell inoculum (OD600 at 0 h 1.96)
  OD600 at 26 h: 3.99
yeast; [3]
  EtOH yield: 0.47 g/g
  EtOH yield % Δ from control: 1.7%
yeast; 0.1%, low cell inoculum (OD600 at 0 h 0.70)
  OD600 at 26 h: 2.83
yeast; [4]
  EtOH yield: 0.45 g/g
  EtOH yield % Δ from control: −4.6%
yeast; 0.2%, high cell inoculum (OD600 at 0 h 1.96)
  OD600 at 26 h: 3.53
yeast; [5]
  EtOH yield: 0.48 g/g
  EtOH yield % Δ from control: 4.9%
yeast; 0.2%, low cell inoculum (OD600 at 0 h 0.70)
  OD600 at 26 h: 2.41
yeast; [6]
  EtOH yield: 0.47 g/g
  EtOH yield % Δ from control: −1.1%

## OCCc1c[nH]c2ccccc12 [TrpOH, tryptophol]
S. cerevisiae JAY270
  Ethanol yield higher than the value for free cell fermentation of D. armatus hydrolysate: about 20%
S. cerevisiae JAY270; D. armatus hydrolysate, batch
  Ethanol yield: 0.49 g ethanol/g sugar
  EtOH yield: 0.49 g/g
  EtOH yield % Δ from control: 11.4% and 11.42%
S. cerevisiae JAY 270; TrpOH 0.12% (w/v)
  Biomass Yield: 0.063 ± 0.008 g/g
  Biomass yield % change vs. control: −28 ± 5 %
  EtOH yield: 0.420 ± 0.012 g/g
  EtOH yield % change vs. control: 6.5 ± 3.1 %
  Glycerol yield: 0.070 ± 0.004 g/g
  Glycerol yield % change vs. control: −17 ± 2 %
S. cerevisiae JAY 270; TrpOH 0.12% (w/v), listed as tryptophol
  EtOH yield % change vs. control: 10%
S. cerevisiae JAY 270; TrpOH 0.12%, 24 h
  Final cell concentration, lower than control: about 22%
  Glycerol concentration, lower than control: 17%
S. cerevisiae JAY 270; TrpOH 0.12%, 24 h, listed as tryptophol
  Final cell concentration, lower than control: 22%
S. cerevisiae JAY 270
  Biomass yield, lower in comparison to control: about 20%
yeast; 0.05%, high cell inoculum (OD600 at 0 h 0.85)
  OD600 at 48 h: 2.47
yeast; [7]
  EtOH yield: 0.52 g/g
  EtOH yield % Δ from control: 4.6%
yeast; 0.05%, low cell inoculum (OD600 at 0 h 0.30)
  OD600 at 48 h: 1.17
yeast; [8]
  EtOH yield: 0.50 g/g
  EtOH yield % Δ from control: 5.7%
yeast; 0.1%, high cell inoculum (OD600 at 0 h 0.85)
  OD600 at 48 h: 1.87
yeast; [9]
  EtOH yield: 0.54 g/g
  EtOH yield % Δ from control: 7.6%
yeast; 0.1%, low cell inoculum (OD600 at 0 h 0.30)
  OD600 at 48 h: 0.79
yeast; [10]
  EtOH yield: 0.50 g/g
  EtOH yield % Δ from control: 2.2%
yeast; 0.2%, high cell inoculum (OD600 at 0 h 0.85)
  OD600 at 48 h: 1.40
yeast; [11]
  EtOH yield: 0.51 g/g
  EtOH yield % Δ from control: 1.9%
yeast; 0.2%, low cell inoculum (OD600 at 0 h 0.30)
  OD600 at 48 h: 0.51
yeast; [12]
  EtOH yield: 0.52 g/g
  EtOH yield % Δ from control: 5.9%
Yeast cell growth
  Concentration with similar growth inhibition as PheOH at 16.4 mM: 7.5 mM
  Concentration with similar growth inhibition as PheOH at 0.2% (w/v): 0.12 % (w/v)
